According to ChEMBL document CHEMBL6074642, “Natural and Bioinspired Lipidic Alkynylcarbinols as Leishmanicidal, Antiplasmodial, Trypanocidal, Fungicidal, Antibacterial, and Antimycobacterial Agents” (J Nat Prod, 2024):
≈ marks a conversion by molar mass, not a printed value.

What was measured:
Staphylococcus aureus [1] = experiment: Antibacterial activity against methicillin-resistant Staphylococcus aureus SAP0017 assessed as reduction in bacterial growth; assay type: functional
Escherichia coli = experiment: Antibacterial activity against Escherichia coli DC2; assay type: functional
Staphylococcus aureus [2] = experiment: Antibacterial activity against methicillin-resistant Staphylococcus aureus K147 assessed as reduction in bacterial growth; assay type: functional
Bacillus subtilis [3] = experiment: Antibacterial activity against Bacillus subtilis NBRC 3513; assay type: functional
Pseudomonas aeruginosa [4] = experiment: Antibacterial activity against Pseudomonas aeruginosa ATCC 15442 […] assessed as reduction in bacterial growth after 18 to 20 hrs by CLSI-based broth microdilution assay; assay type: functional; conditions: time 18-20 hrs
Bacillus subtilis [5] = experiment: Antibacterial activity against Bacillus subtilis PY79 assessed as reduction in bacterial growth; assay type: functional, organism-based
Bacillus subtilis [6] = experiment: Antibacterial activity against Bacillus subtilis; assay type: functional
Streptococcus pyogenes = experiment: Antibacterial activity against Streptococcus pyogenes assessed as bacterial growth inhibition; assay type: functional
Leishmania donovani [7] = experiment: Antileishmanial activity against Leishmania donovani amastigotes infected in J774 macrophage assessed as inhibition of parasite growth incubated for 48 hrs by luciferase assay; assay type: functional, organism-based; conditions: J774, 48 h
Bipolaris sorokiniana = experiment: Antifungal activity against Cochliobolus sativus; assay type: functional, organism-based
Alternaria kikuchiana = experiment: Antifungal activity against Alternaria kikuchiana; assay type: functional, organism-based
[8] = tested on: Colletotrichum gloeosporioides; experiment: Antifungal activity against Colletotrichum gloeosporioides; assay type: functional, organism-based
[9] = tested on: Mycobacterium tuberculosis; experiment: Antibacterial activity against Mycobacterium tuberculosis H37Ra assessed as reduction in bacterial growth incubated for 14 days by CLSI protocol based method; assay type: functional; conditions: 336 h, time 14 day
Staphylococcus aureus [10] = experiment: Antibacterial activity against Staphylococcus aureus assessed as reduction in microbial growth by CLSI based broth microdilution method; assay type: functional
Staphylococcus aureus [11] = experiment: Antimicrobial activity against methicillin-resistant Staphylococcus aureus assessed as reduction in microbial growth after 24 to 48 hrs by microdilution susceptibility test; assay type: functional; conditions: time 24-48 hrs
[12] = tested on: Mycolicibacterium fortuitum; experiment: Antimycobacterial activity against Mycobacterium fortuitum ATCC 6841 assessed as bacterial growth inhibition incubated for 72 hrs by resazurin dye based broth microdilution method; assay type: functional
Mycolicibacterium phlei = experiment: Antimycobacterial activity against Mycobacterium phlei ATCC 11758; assay type: functional
Mycolicibacterium aurum = experiment: Antimycobacterial activity against Mycobacterium aurum; assay type: functional
[13] = tested on: Mycolicibacterium smegmatis; experiment: Antimycobacterial activity against Mycobacterium smegmatis ATCC 14468; assay type: functional
[14] = tested on: Mycobacteroides abscessus; experiment: Antimycobacterial activity against Mycobacterium abscessus ATCC 19977; assay type: functional
[15] = tested on: Mycobacterium tuberculosis; experiment: Antimycobacterial activity against Mycobacterium tuberculosis H37Rv assessed as inhibition of bacterial growth incubated for 7 to 14 days by MABA assay; assay type: functional; conditions: time 7-14 day
Leishmania mexicana [16] = experiment: Antileishmanial activity against Leishmania mexicana amastigotes; assay type: functional, organism-based
Leishmania mexicana [17] = experiment: Antileishmanial activity against Leishmania mexicana promastigotes; assay type: functional, organism-based
Trypanosoma brucei = experiment: Antitrypanosomal activity against Trypanosoma brucei assessed as inhibition of parasite growth incubated for 72 hrs by resazurin reagent fluorimetric analysis; assay type: functional, organism-based
Enterococcus faecalis = experiment: Antibacterial activity against Enterococcus faecalis; assay type: functional
Plasmodium falciparum [18] = experiment: Antiplasmodial activity against Plasmodium falciparum assessed as parasite growth inhibition; assay type: functional, organism-based
Plasmodium falciparum [19] = experiment: Antiparasitic activity against Plasmodium falciparum K1 assessed as reduction in parasite growth; assay type: functional, organism-based
Leishmania donovani [20] = experiment: Antileishmanial activity against amastigote form of Leishmania donovani infected in BALB/c mouse assessed as inhibition of parasite growth in liver at 10 mg/kg, po measured for 7 days by geimsa staining based analysis relative to control; assay type: functional; set-up: scale not given: the % may be the effect or the level left; conditions: time 7 day
[21] = tested on: Mycobacterium intracellulare; experiment: Antibacterial activity against Mycobacterium intracellulare; assay type: functional, organism-based
Pseudomonas aeruginosa [22] = experiment: Antibacterial activity against Pseudomonas aeruginosa assessed as reduction in bacterial growth incubated for 24 hrs by broth microdilution method; assay type: functional, organism-based
Phytophthora capsici = experiment: Antifungal activity against Phytophthora capsici; assay type: functional, organism-based

`C=CC(O)C#CC#CC(O)/C=C\C(O)CCCCCC` (centres undefined) showed an MIC (Staphylococcus aureus [1]) of 200 µg/mL (≈ 724 µM), an MIC (Escherichia coli) of 200 µg/mL (≈ 724 µM) and an MIC (Staphylococcus aureus [2]) of 200 µg/mL (≈ 724 µM). For the same compound, the MIC (Bacillus subtilis [3]) was 200 µg/mL (≈ 724 µM) and the MIC (Pseudomonas aeruginosa [4]) was 200 µg/mL (≈ 724 µM).
`C#CC(O)/C=C/C(O)CCCC(O)CC#CC(O)C#CCCCC(O)/C=C/CCCCCC(=O)CCCCCCCCCCCCCC(O)C(O)C(O)C#CC(=O)O` (centres undefined) showed an IC50 (Bacillus subtilis [5]) of 12 µg/mL (≈ 14.8 µM).
Compound `C#CC(O)/C=C/C(O)CCCC(O)CC#CC(O)C#CC(O)CCCC(=O)CCCCC/C=C/C(O)CCCCCCCCCCCCCC(O)C(O)C#CC(=O)O` (centres undefined) has an IC50 (Bacillus subtilis [5]) of 12 µg/mL (≈ 14.8 µM).
For `C=C[C@@H](C#CC#C[C@@H](CCCCCCCCC)NS(C)(=O)=O)OC(C)=O`, the MIC (Bacillus subtilis [6]) was 4 µM (≈ 1.53 µg/mL), the MIC (Streptococcus pyogenes) was 8 µM (≈ 3.05 µg/mL) and the IC50 (Leishmania donovani [7]) was 0.05 µM.
With `C=C[C@H](O)C#CC#CC/C=C\CCCCCCCC` the EC50 (Bipolaris sorokiniana) was 26 µg/mL (≈ 101 µM).
`C#CC(O)/C=C/C(O)CCCC(O)C(O)C#CC(O)C#CCCCC(O)/C=C/CCCCCCCCCCCCCCCCCCCCCC(O)C(O)C#CC(=O)O` (centres undefined) showed an IC50 (Bacillus subtilis [5]) of 25 µg/mL (≈ 30.7 µM).
`C=C[C@H](O)C#CC#CC/C=C/CCCCCCCC` gave an EC50 (Alternaria kikuchiana) of 41 µg/mL (≈ 159 µM), an EC50 [8] of 46 µg/mL (≈ 178 µM) and an EC50 (Bipolaris sorokiniana) of 9 µg/mL (≈ 34.8 µM).
With `C=C[C@@H](O)C#CC#C[C@@H](O)/C=C\CCCCCCC` [FALCARINDIOL] the MIC [9] was 1.6 µg/mL (≈ 6.14 µM), the MIC (Staphylococcus aureus [10]) was 7.8 µg/mL and the MIC (Staphylococcus aureus [11]) was 16 µg/mL.
Compound `C#CC(O)/C=C/C(O)CCCC(O)C(O)C#CC(O)C#CCCCCC(=O)CCCCC/C=C/C(O)CCCCCCCCCCCCC(O)C(O)C(O)C#CC(=O)O` (centres undefined) has an IC50 (Bacillus subtilis [5]) of 48 µg/mL (≈ 57.9 µM).
For `C=C[C@H](O)C#CC#CC(O)/C=C\CCCCCCC` (some centres undefined), the MIC [12] was 4 µg/mL (≈ 15.4 µM), the MIC (Mycolicibacterium phlei) was 2 µg/mL (≈ 7.68 µM) and the MIC (Mycolicibacterium aurum) was 4 µg/mL (≈ 15.4 µM). It also gave an MIC [13] of 4 µg/mL (≈ 15.4 µM) and an MIC [14] of 2 µg/mL (≈ 7.68 µM).
`C=C[C@@H](O)C#CC#CC/C=C/CCCCCCCC` showed an EC50 (Alternaria kikuchiana) of 51 µg/mL (≈ 197 µM).
`C#CC(O)/C=C/CCCCCCCCC/C=C/CCCCCCCCC/C=C/C(O)C#C` (centres undefined) gave an MIC [15] of 1.4 µM (≈ 0.617 µg/mL).
Work on `C=CCCCCC/C=C\CC#CC#C[C@@H](O)C=C` yielded an IC50 (Leishmania mexicana [16]) of 0.18 µg/mL (≈ 0.743 µM) and an IC50 (Leishmania mexicana [17]) of 0.28 µg/mL (≈ 1.16 µM).
In the case of `C=CC(C#CC#CC(O)CCCCCCCCC)OC(C)=O` (centres undefined), the IC50 (Trypanosoma brucei) is reported as 0.46 µM.
For `C=C[C@H](O)C#CC#C[C@@H](CCCCCCCCC)NC(=O)c1ccccc1`, the IC50 (Leishmania donovani [7]) was 0.005 µM.
Work on `C#CC(O)/C=C/C(O)CCCC(O)CC#CC(O)C#CCCCCC(=O)CCCCC/C=C/C(O)CCCCCCCCCCCCC(O)C(O)C(O)C#CC(=O)O` (centres undefined) yielded an IC50 (Bacillus subtilis [5]) of 12 µg/mL (≈ 14.8 µM).
`C=C[C@@H](C#CC#C[C@H](O)CCCCCCCCC)OC(C)=O` was tested, and the MIC (Bacillus subtilis [6]) was 8 µM (≈ 2.44 µg/mL), the MIC (Streptococcus pyogenes) was 8 µM (≈ 2.44 µg/mL) and the MIC (Enterococcus faecalis) was 32 µM (≈ 9.74 µg/mL). The IC50 (Plasmodium falciparum [18]) was 0.341 µg/mL (≈ 1.12 µM) and the IC50 (Leishmania donovani [7]) was 0.63 µM.
Work on `C=C[C@H](C#CC#C[C@H](O)CCCCCCCCC)OC(C)=O` yielded an IC50 (Plasmodium falciparum [19]) of 8.07 µg/mL (≈ 26.5 µM) and an IC50 (Leishmania donovani [7]) of over 10 µM.
`C=C[C@@H](C#CC#C[C@@H](CCCCCCCCC)NCCCC)OC(C)=O` gave an Activity (Leishmania donovani [20]) of 32% and an IC50 (Leishmania donovani [7]) of 0.03 µM.
Work on `C=C[C@H](O)C#CC#C[C@H](O)CCCCCCCCC` yielded an MIC (Bacillus subtilis [6]) of 2 µM (≈ 0.525 µg/mL), an MIC (Streptococcus pyogenes) of 8 µM (≈ 2.1 µg/mL) and an MIC (Enterococcus faecalis) of 16 µM (≈ 4.2 µg/mL). It also gave an Activity (Leishmania donovani [20]) of 41%, an IC50 (Plasmodium falciparum [18]) of 0.271 µg/mL (≈ 1.03 µM) and an IC50 (Leishmania donovani [7]) of 0.013 µM.
In the case of `CCCCCCCCCCCCC1CC1CCCC(O)C#CC#CCO` (centres undefined), the IC50 [21] is reported as 14 µM and the IC50 (Pseudomonas aeruginosa [22]) is reported as 1.8 µM.
`C=C[C@@H](C#CC#C[C@@H](O)CCCCCCCCC)OC(C)=O` was tested, and the IC50 (Plasmodium falciparum [18]) was 0.27 µg/mL (≈ 0.887 µM) and the IC50 (Leishmania donovani [7]) was 1.3 µM.
Work on `C=C[C@@H](C#CC#C[C@@H](CCCCCCCCC)NC(=O)c1ccccc1)OC(C)=O` yielded an Activity (Leishmania donovani [20]) of 26% and an IC50 (Leishmania donovani [7]) of 0.03 µM.
For `C=C[C@H](O)C#CC#C[C@@H](CCCCCCCCC)NCCCC`, the IC50 (Leishmania donovani [7]) was 0.003 µM.
For `C=C[C@@H](O)C#CC#C[C@@H](O)c1cccs1`, the EC50 (Phytophthora capsici) was 3.3 µg/mL (≈ 15.1 µM).
